# Measurements reported in patent US8338426B2, “Piperazinyl derivatives useful as modulators of the neuropeptide Y2 receptor” (Janssen Pharmaceutica NV, priority 2007, dated 2012).
# Changes are numbered by the printed parent chain.
# Columns and labels:
# human Y2 receptor = biological target: T1, human Y2 receptor (Homo sapiens, UniProt P49146); assay: Neuropeptide Y2 radioligand binding assay, [125I]PYY, KAN-Ts cells; conditions: KANT-S cells, mean ± S.E.M., read-out: hY2 pKi (converted)
# T1 construct: KAN-Ts endogenously expressing Y2 receptors were used; endogenous in cells; host or cells: KAN-Ts cells
# T1 sequence (P49146 1-381): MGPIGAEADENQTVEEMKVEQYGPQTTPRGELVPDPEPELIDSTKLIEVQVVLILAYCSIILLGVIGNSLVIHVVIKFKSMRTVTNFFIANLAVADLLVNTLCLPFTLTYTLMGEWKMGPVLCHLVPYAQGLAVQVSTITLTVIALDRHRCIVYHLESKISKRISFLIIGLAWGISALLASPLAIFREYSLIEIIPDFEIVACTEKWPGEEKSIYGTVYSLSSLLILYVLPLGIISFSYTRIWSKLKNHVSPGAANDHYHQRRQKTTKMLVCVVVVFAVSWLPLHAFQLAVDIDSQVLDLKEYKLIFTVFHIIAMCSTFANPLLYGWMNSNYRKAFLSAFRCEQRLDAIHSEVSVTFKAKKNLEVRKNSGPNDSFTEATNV
# Procedure: (§1) Radioligand binding assays for the human and rat/mouse Y2 receptor were performed as described in Bonaventure, P., D. Nepomuceno, C. Mazur, B. Lord, D. A. Rudolph, J. A. Jablonowski, N. I. Carruthers and T. W. Lovenberg, J Pharmacol Exp Ther. 2004, 308, 1130.
# (§2) KAN-Ts endogenously expressing Y2 receptors were used, for the rat and mouse Y2 receptor, membranes from rat or mouse hippocampus were prepared. Membranes were incubated with [^125I]PYY (80 pM) in the presence or absence of test compound for 1 h at rt. The reaction was stopped by filtration through GF/C filter plates pre-soaked in 0.3% polyethylenimine and subsequently washed with Tris-HCl, 50 mM, 5 mM EDTA buffer. Plates were dried for 1 h in a 55° C. oven, scintillation fluid was added and the radioactivity was counted in a Packard TopCount. Specific binding to the NPY receptor subtypes was determined by radioactivity that was bound in the presence of 1 μM NPY.
# (§3) Apparent Ki values were calculated as K=IC50/(1+C/KD), where C is concentration of the radioligand and pKi=−log Ki. Data presented below are expressed as mean±S.E.M.
# [1] = biological target: T2, Y2 receptor binding sites in rat hippocampus (Rattus norvegicus, UniProt Q9ERC0); assay: Ex vivo Y2 receptor occupancy in rats (autoradiography); conditions: SC administration (10 mg/kg)
# T2 construct: from tissue; host or cells: rat brain sections (hippocampus) after in vivo dosing
# T2 sequence (Q9ERC0 1-381): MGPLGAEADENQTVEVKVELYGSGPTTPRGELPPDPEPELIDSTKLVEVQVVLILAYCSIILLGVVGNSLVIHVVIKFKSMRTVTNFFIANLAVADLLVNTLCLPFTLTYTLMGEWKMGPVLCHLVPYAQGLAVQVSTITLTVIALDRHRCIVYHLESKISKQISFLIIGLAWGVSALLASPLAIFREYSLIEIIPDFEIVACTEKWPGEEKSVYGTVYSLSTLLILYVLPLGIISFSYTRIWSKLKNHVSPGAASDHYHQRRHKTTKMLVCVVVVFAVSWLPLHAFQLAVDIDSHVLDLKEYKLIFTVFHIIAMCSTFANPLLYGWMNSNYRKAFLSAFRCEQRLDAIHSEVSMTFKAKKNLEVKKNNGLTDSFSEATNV
# Procedure: The pharmacokinetic, blood-brain barrier penetration and ex vivo receptor occupancy studies were performed as described in Bonaventure, P., D. Nepomuceno, C. Mazur, B. Lord, D. A. Rudolph, J. A. Jablonowski, N. I. Carruthers and T. W. Lovenberg, J Pharmacol Exp Ther. 2004, 308, 1130.
# The compound of formula (A) was formulated in 20% hydroxypropylbetacyclodextrine. Subcutaneous (SC), oral (PO) or intravenous (IV) dosing was followed by blood sampling via cardiac puncture over a time course. Blood samples consisted of 250 μl samples taken from the heart using a 23-gauge needle into 1.5 ml micro-centrifuge tubes. Brains were removed from the animals and bisected down the midsagittal plane. One hemisphere was frozen on dry ice for ex vivo receptor binding autoradiography and the other was homogenized for LC/MS-MS analysis.
# Ex vivo receptor binding autoradiography was performed on brain sections. Twenty-micron-thick coronal sections at the level of the […] regions were collected and incubated for 10 min with 100 pM [^125I]PYY in Krebs-Ringer phosphate buffer (KRP) at pH 7.4 supplemented with 0.1% BSA, 0.05% bacitracin, and 1 μM BIBP-3226 for Y1 receptor occlusion. The sections were not washed prior to incubation and were incubated 10 minutes to avoid dissociation. Nonspecific binding was determined using adjacent sections incubated in the presence of 1 μM unlabelled hNPY. At the end of the incubation, sections were washed 4 times (4 minutes each) in ice cold buffer, dipped in deionized water and rapidly dried under a stream of cold air. Sections were exposed to a Fujifilm Imaging Plate (BAS-MS2025) for 12 hours. The Phosphor Imaging Plate was scanned using a Fuji Bio-Imaging Analyzer System (BAS-5000). The digitized computer images generated by the scanner were visualized and quantified using ImageGauge V3.12 software (Fujifilm).
# hY2 = biological target: T3, hY2 (Homo sapiens, UniProt P49146); assay: Ca2+ mobilization assay (FLIPR) in KAN-Ts cells; type: cell-based; conditions: KANT-S cells, inhibition of PYY stimulated Ca2+ increase, read-out: hY2 pKB (converted)
# T3 construct: KAN-Ts endogenously expressing Y2 receptors were used; endogenous in cells; host or cells: KAN-Ts cells stably expressing chimeric G proteins
# T3 sequence (P49146 1-381): T1 sequence (P49146 1-381)
# Procedure: The assay was performed using the fluorimetric imaging plate reader (FLIPR) format as described in Dautzenberg, F. M., Biochemical Pharmacology 2005, 69, 1493.
# KAN-Ts cells stably expressing chimeric G proteins were seeded at a density of 100,000 cells into poly-d-lysine coated 384-well blackwall, clear-bottom microtiter plates (Corning, N.Y.). One day later, the medium was removed and 50 μl loading medium DMEM high glucose, without serum, supplemented with 10 mM HEPES-acid, 0.1% BSA, 5 mM probenecid and 2 μM Fluo-3AM was added. Cells were loaded for 1 h at 37° C., washed twice with 50 μl assay buffer (5 mM HEPES-acid, 140 mM NaCl, 1 mM MgCl2, 5 mM KCl, 10 mM glucose) and then 30 μl assay buffer was added. Cells were further pre-incubated at room temperature before adding agonists or agonists plus antagonists in 20 μl assay buffer and then measured on a T-channel fluorometric imaging plate reader (FLIPR, Molecular Devices, Sunnyvale, Calif.).
# Antagonistic potency values were converted to apparent pKB values using a modified Cheng-Prusoff correction. Apparent pKB=−log IC50/1+[conc agonist/EC50]. Data below are expressed as mean±S.E.M.
# The in vitro antagonistic properties of the compound of formula (A) were confirmed using Ca^2+ measurement.
# MTP = MTP (Homo sapiens, UniProt P55157); assay: MTP assay (triglyceride transfer between vesicles); type: biochemical; conditions: read-out: MTP pIC50 (converted)
# Procedure: MTP activity was measured using an assay similar to one described by J. R. Wetterau and D. B. Zilversmit in Chemistry and Physics of Lipids (1985) 38, 205-222.
# In order to prepare the donor and acceptor vesicles, the appropriate lipids in chloroform were put into a glass test tube and dried under a stream of nitrogen. A buffer containing 15 mM Tris-HCl (pH 7.5), 1 mM ethylenediamine tetra-acetic acid, 40 mM NaCl, 0.02% NaN3 (assay buffer) was added to the dried lipid. The mixture was vortexed briefly and the lipids were then allowed to hydrate for 20 minutes on ice. Vesicles were then prepared by bath sonication (using a Branson 2200 device) at room temperature for at most 15 minutes. Butylated hydroxytoluene was included in all vesicle preparations at a concentration of 0.1%. The lipid transfer assay mixture contained donor vesicles (40 nmole phosphatidylcholine, 7.5 mole % cardiolipin and 0.25 mole % glycerol tri[1-^14C]-oleate), acceptor vesicles (240 nmol phosphatidylcholine) and 5 mg bovine serum albumin in a total volume of 675 μl in a 1.5 ml microcentrifuge tube. Test compound was added dissolved in dimethylsulfoxide (0.13% final concentration). After 5 minutes of pre-incubation at 37° C., the reaction was started by the addition of MTP in 100 μl of a dialysis buffer. The reaction was stopped by the addition of 400 μl […] (DEAE)-52 cellulose (Sephadex) pre-equilibrated in 15 mM Tris-HCl (pH 7.5), 1 mM ethylenediamine tetra-acetic acid and 0.02% NaN3 (1:1 volume/volume). The mixture was agitated for 4 minutes and centrifuged for 2 minutes at maximum speed in an Eppendorf centrifuge (4° C.) to pellet the DEAE-52-bound donor vesicles. An aliquot of the supernatant containing the acceptor liposomes was counted and the [^14C]-counts were used to calculate the percent triglyceride transfer from donor to acceptor vesicles.
# Representative compounds of the present invention were measured for binding against the MTP receptor, as described above, with results as listed in Table 2 below.
# rat Y2 receptor = biological target: T4, rat Y2 receptor (Rattus norvegicus, UniProt Q9ERC0); assay: Neuropeptide Y2 radioligand binding assay, [125I]PYY, rat hippocampus membranes; conditions: read-out: rY2 pKi (converted)
# T4 construct: membranes from rat or mouse hippocampus were prepared; from tissue; host or cells: rat hippocampus membranes
# T4 sequence (Q9ERC0 1-381): T2 sequence (Q9ERC0 1-381)
# Procedure: as §1, §2, §3
# mouse Y2 receptor = biological target: T5, mouse Y2 receptor (Mus musculus, UniProt P97295); assay: Neuropeptide Y2 radioligand binding assay, [125I]PYY, mouse hippocampus membranes; conditions: read-out: mY2 pKi (converted)
# T5 construct: membranes from rat or mouse hippocampus were prepared; from tissue; host or cells: mouse hippocampus membranes
# T5 sequence (P97295 1-381): T2 sequence (Q9ERC0 1-381) with L4V, L20P, S23P, P25H, V52I, Q163R, V175I, K247R, T266M, L371P
# Procedure: as §1, §2, §3
# Chain of MTP (P55157 19-894, species assumed): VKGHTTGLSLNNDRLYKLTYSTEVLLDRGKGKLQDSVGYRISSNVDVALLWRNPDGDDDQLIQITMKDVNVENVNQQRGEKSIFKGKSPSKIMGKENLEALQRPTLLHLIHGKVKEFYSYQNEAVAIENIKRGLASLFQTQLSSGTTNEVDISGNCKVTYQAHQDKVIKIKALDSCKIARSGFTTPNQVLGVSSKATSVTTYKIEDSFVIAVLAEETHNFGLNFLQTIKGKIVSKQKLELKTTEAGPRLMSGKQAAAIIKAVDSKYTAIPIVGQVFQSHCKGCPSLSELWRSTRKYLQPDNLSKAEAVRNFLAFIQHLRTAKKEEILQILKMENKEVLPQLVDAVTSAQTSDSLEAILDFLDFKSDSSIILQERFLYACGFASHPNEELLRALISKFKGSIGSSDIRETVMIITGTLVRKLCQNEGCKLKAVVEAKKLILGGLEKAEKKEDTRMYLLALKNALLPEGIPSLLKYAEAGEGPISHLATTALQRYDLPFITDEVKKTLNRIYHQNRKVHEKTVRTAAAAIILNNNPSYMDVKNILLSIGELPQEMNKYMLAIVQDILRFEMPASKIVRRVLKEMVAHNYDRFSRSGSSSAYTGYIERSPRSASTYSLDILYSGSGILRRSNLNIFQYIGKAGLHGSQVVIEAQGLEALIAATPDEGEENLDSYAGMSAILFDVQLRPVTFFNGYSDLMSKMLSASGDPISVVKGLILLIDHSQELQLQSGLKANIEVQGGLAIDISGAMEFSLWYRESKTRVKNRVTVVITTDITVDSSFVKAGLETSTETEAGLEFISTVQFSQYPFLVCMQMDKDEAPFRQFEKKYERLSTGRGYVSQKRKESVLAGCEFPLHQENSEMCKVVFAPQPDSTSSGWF
# Chain of MTP (P07237 18-508 partner, species assumed): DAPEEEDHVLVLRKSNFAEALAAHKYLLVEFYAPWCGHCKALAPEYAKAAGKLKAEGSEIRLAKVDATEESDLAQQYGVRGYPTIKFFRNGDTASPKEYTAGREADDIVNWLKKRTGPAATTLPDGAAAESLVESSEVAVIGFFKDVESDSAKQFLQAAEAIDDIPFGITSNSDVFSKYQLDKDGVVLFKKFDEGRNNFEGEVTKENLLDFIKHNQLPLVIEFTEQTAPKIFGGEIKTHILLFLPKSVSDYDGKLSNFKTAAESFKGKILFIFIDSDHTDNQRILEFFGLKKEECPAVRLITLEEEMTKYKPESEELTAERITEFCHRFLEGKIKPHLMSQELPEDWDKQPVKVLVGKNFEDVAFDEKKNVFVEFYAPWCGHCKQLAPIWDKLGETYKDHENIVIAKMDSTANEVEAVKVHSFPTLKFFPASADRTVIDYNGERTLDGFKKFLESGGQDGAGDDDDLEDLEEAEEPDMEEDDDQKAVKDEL
SMILES,Ki (human Y2 receptor),Kb (hY2),IC50 (MTP),Ki (rat Y2 receptor),Ki (mouse Y2 receptor),"receptor occupancy at 10 mg/kg ([1]; rat, read-out: Y2 receptor occupancy in rat brain)",Y2 receptor occupancy in rat brain [1]
"CCN(CC)C(=O)C(c1ccccc1)N1CCN(c2ccc(NC(=O)c3ccccc3-c3ccccc3)cc2F)CC1 (stereo not shown) [Cmpd (C), Biphenyl-2-carboxylic acid {4-[4-(diethylcarbamoyl-phenyl-methyl)-piperazin-1-yl]-3-fluoro-phenyl}-amide]",0.00759 µM,0.00631 µM,0.0501 µM,0.0251 µM,–,–,did not show any significant level of Y2 receptor occupancy
"CCN(CC)C(=O)C(c1ccccc1)N1CCN(c2ccc(NC(=O)c3ccccc3-c3cccnc3)cc2F)CC1 (single isomer, unassigned; (-)) [(−)-Cmpd (A), (−)-N-{4-[4-(Diethylcarbamoyl-phenyl-methyl)-piperazin-1-yl]-3-fluoro-phenyl}-2-pyridin-3-yl-benzamide]",0.00316 µM,0.000794 µM,6.31 µM,0.012 µM,0.00794 µM,–,–
"CCN(CC)C(=O)C(c1ccccc1)N1CCN(c2ccc(NC(=O)c3ccccc3-c3cccnc3)cc2F)CC1 (single isomer, unassigned; (+)) [(+)-Cmpd (A), N-{4-[4-(Diethylcarbamoyl-phenyl-methyl)-piperazin-1-yl]-3-fluoro-phenyl}-2-pyridin-3-yl-benzamide]",0.00794 µM,0.000398 µM,0.316 µM,0.01 µM,–,–,–

# Second part, led by results:
Ki (human Y2 receptor),Kb (hY2),IC50 (MTP),Ki (rat Y2 receptor),Ki (mouse Y2 receptor),"receptor occupancy at 10 mg/kg ([1]; rat, read-out: Y2 receptor occupancy in rat brain)",SMILES,Y2 receptor occupancy in rat brain [1]
0.0398 µM,–,0.398 µM,–,–,–,"CCNC(=O)C(c1ccccc1)N1CCN(c2ccc(NC(=O)c3ccccc3-c3cccnc3)cc2F)CC1 (single isomer, unassigned; (-)) [(−)-Cmpd (B), N-{4-[4-(ethylcarbamoyl-phenyl-methyl)-piperazin-1-yl]-3-fluoro-phenyl}-2-pyridin-3-yl-benzamide]",–
0.0324 µM,0.0501 µM,0.251 µM,–,–,~40%,"CCNC(=O)C(c1ccccc1)N1CCN(c2ccc(NC(=O)c3ccccc3-c3cccnc3)cc2F)CC1 (racemic) [Cmpd (B), N-{4-[4-(ethylcarbamoyl-phenyl-methyl)-piperazin-1-yl]-3-fluorophenyl}-2-pyridin-3-yl-benzamide]",–
0.229 µM,–,3.98 µM,–,–,–,"CCNC(=O)C(c1ccccc1)N1CCN(c2ccc(NC(=O)c3ccccc3-c3cccnc3)cc2F)CC1 (single isomer, unassigned; (+)) [(+)-Cmpd (B), N-{4-[4-(ethylcarbamoyl-phenyl-methyl)-piperazin-1-yl]-3-fluoro-phenyl}-2-pyridin-3-yl-benzamide]",–
